From the supplement of paper PMC10307832

Tests used:
Experiment in all cases: relative viability (nuclei count vs DMSO), 5 days (fraction); higher = more cells survive
[1] = compound: CC(C)C[C@H](NC(=O)[C@H](Cc1ccccc1)NC(=O)c1cnccn1)B(O)O [Bortezomib] + N=C(N)NC(=N)NCCc1ccccc1 [Phenformin] (partner 250 µM)
In short: (§1)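 Five library-drug doses in √10 steps were combined with a fixed anchor-drug dose, or a single drug was given alone, by pin tool to lung cancer cell lines in 1536-well plates the day after seeding. Nuclei were stained and counted after 5 days. Relative viability is the nuclei count in treated wells over that in vehicle wells, taken as the median of duplicate plates.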

[2] = compound: COC1=CC(c2cc3ccccc3[nH]2)=N/C1=C\c1[nH]c(C)cc1C [Obatoclax] + Cc1cc(Nc2cc(N3CCN(C)CC3)nc(Sc3ccc(NC(=O)C4CC4)cc3)n2)n[nH]1 [Tozasertib] (partner 0.1 µM)
In short: as §1

[3] = compound: COC1=CC(c2cc3ccccc3[nH]2)=N/C1=C\c1[nH]c(C)cc1C [Obatoclax] + N=C(N)NC(=N)NCCc1ccccc1 [Phenformin] (partner 250 µM)
In short: as §1

[4] = compound: COC1=CC(c2cc3ccccc3[nH]2)=N/C1=C\c1[nH]c(C)cc1C [Obatoclax] + CC(C)C[C@H](NC(=O)[C@H](Cc1ccccc1)NC(=O)c1cnccn1)B(O)O [Bortezomib] (partner 0.002 µM)
In short: as §1

**Q.** Which results are given for NCI-H650?
**A.** relative viability ([1]; first compound 0.000632 µM): 0.431; relative viability ([1]; first compound 0.002 µM): 0.461; relative viability ([1]; first compound 0.006325 µM): 0.38; relative viability ([1]; first compound 0.02 µM): 0.203; relative viability ([2]; first compound 0.01 µM): 0.732; relative viability ([2]; first compound 0.03162 µM): 0.779; relative viability ([2]; first compound 0.3162 µM): 0.631; relative viability ([2]; first compound 1 µM): 0.309; relative viability ([3]; first compound 0.01 µM): 0.454; relative viability ([3]; first compound 0.03162 µM): 0.395; relative viability ([3]; first compound 0.3162 µM): 0.314; relative viability ([3]; first compound 1 µM): 0.288; relative viability ([4]; first compound 0.01 µM): 0.795; relative viability ([4]; first compound 0.03162 µM): 0.732; relative viability ([4]; first compound 0.1 µM): 0.455; relative viability ([4]; first compound 0.3162 µM): 0.504; relative viability ([4]; first compound 1 µM): 0.337
